# Patent US20230303572A1, “18-MC SALT FORMS” (Mind Medicine, Inc., priority 2022, published 2023)
# Counter-ions that a name gives are not always drawn. Marks after values point to notes of the source that are not given here.
# Tests used:
# Type in all cases: physicochemical
# [1] = Approximate solubility estimated by stepwise solvent addition (RT and 50° C.)
# Description: Approximate solubility values of sulfate Type A (824511-04-A) were estimated in 10 solvents to guide the solvent selection in the polymorph screening, with results summarized in TABLE 16B.
# Approximate solubility of oxalate Type B (824511-04-C) was estimated in 10 solvents to guide the solvent selection in polymorph screening of oxalate, and the results were summarized in TABLE 19C.
# Procedure: weigh ~2 mg solids into each 3-mL glass vial, add in corresponding solvent stepwise and sonicate or oscillate to see if solids dissolved completely. Stop adding solvent till the solids dissolves or total volume reaches 1.0 mL. Calculate the approximate solubility based on solvent volume.
# The approximate solubility of mesylate Type A (824511-23-B) was estimated in 10 solvents to guide the solvent selection in polymorph screening of the mesylate, with results summarized in TABLE 22C.
# Approximate solubility of HBr salt Type A (824511-29-B) was estimated in 10 solvents to guide the solvent selection in polymorph screening of HBr salt, with data summarized in TABLE 25B.
# Approximate solubility of tosylate Type B (824511-23-A-0628) was estimated in 40 solvents to guide the solvent selection in polymorph screening of tosylate, with data summarized in TABLE 27B.
# Approximate solubility of besylate Type B (824511-44-C2) was estimated in 38 solvents to guide the solvent selection in polymorph screening of besylate, with results shown in TABLE 31.
# [2] = Heating experiments and VT-XRPD (N2 drying, heating, cooling back): form change; settings: for Form change after treatment: Heat to 165~170° C. under N2, XRPD form; for Form after heating: solid form by XRPD after heating, cells marked *, # have footnotes that are not shown; for form change after N2 drying (VT-XRPD): N2-drying for 20 min at 30° C.
# From the text: (§1) For XRPD analysis, a PANalytical Empyrean and X′ Pert3 X-ray powder diffract meter was used.
# [3] = Physical form stability on storage at RT, air drying or exposure to ambient conditions (XRPD)
# From the text: as §1
# [4] = approximate solubility in CHCl3 at RT
# [5] = approximate solubility in EtOAc at RT
# [6] = approximate solubility in H2O at RT
# [7] = approximate solubility in MeOH at RT
# [8] = approximate solubility in THF at RT
# [9] = approximate solubility in n-Heptane at RT
# [10] = heating to 80° C. and cooling back to RT
compound,measurement,setting,value
"COCC[C@H]1CC2CN3CCc4c([nH]c5ccccc45)[C@](C(=O)OC)(C2)[C@H]13 [HBr salt Type A, 18-methoxycoronaridine]",Solubility (mg/mL),[1]; approximate solubility in ACN at RT,S<2.1 * mg/mL
same,Solubility (mg/mL),[1]; [4],S<2.1 * mg/mL
same,Solubility (mg/mL),[1]; approximate solubility in DCM at RT,S<2.1 * mg/mL
same,Solubility (mg/mL),[1]; [5],S<2.1 mg/mL
same,Solubility (mg/mL),[1]; [6],S<2.1 mg/mL
same,Solubility (mg/mL),[1]; [7],S>42.0 mg/mL
same,Solubility (mg/mL),[1]; [8],S<2.0 mg/mL
same,Solubility (mg/mL),[1]; [9],S<2.0 mg/mL
same,form change after drying or heating (VT-XRPD),[2]; drying or heating under N2 to higher temperatures and cooling back to RT,no form change
"COCC[C@H]1CC2CN3CCc4c([nH]c5ccccc45)[C@](C(=O)OC)(C2)[C@H]13 [HBr salt Type B, 18-methoxycoronaridine]","form conversion, summary statement",[3]; after storage or heating experiments,could convert to HBr salt Type A
same,Form change on storage,[3]; storage at RT for ~20 days,*: Partially converted to HBr salt Type A after storage at RT for ~20 days.
same,form change after storage (XRPD),[3]; storage at RT for ~20 days,partially converted to HBr salt anhydrate Type A
"COCC[C@H]1CC2CN3CCc4c([nH]c5ccccc45)[C@](C(=O)OC)(C2)[C@H]13 [HCl salt Type A+L, 18-methoxycoronaridine]",form change after storage (XRPD),[3]; storage at RT for ~22 days,converted to HCl salt Type A completely
"COCC[C@H]1CC2CN3CCc4c([nH]c5ccccc45)[C@](C(=O)OC)(C2)[C@H]13 [HCl salt Type A+N, 18-methoxycoronaridine]",form change after storage (XRPD),[3]; storage at RT for ~21 days,converted to HCl salt Type A completely
"COCC[C@H]1CC2CN3CCc4c([nH]c5ccccc45)[C@](C(=O)OC)(C2)[C@H]13 [HCl salt Type A+O, 18-methoxycoronaridine]",form change after storage (XRPD),[3]; storage at RT for ~19 days,converted to HCl salt Type A completely
"COCC[C@H]1CC2CN3CCc4c([nH]c5ccccc45)[C@](C(=O)OC)(C2)[C@H]13 [HCl salt Type F, 18-methoxycoronaridine]",Form change after treatment,[2],HCl salt Type K*
same,Form after heating,[2],HCl salt Type K^#
"COCC[C@H]1CC2CN3CCc4c([nH]c5ccccc45)[C@](C(=O)OC)(C2)[C@H]13 [HCl salt Type H, 18-methoxycoronaridine]",Form change after treatment,[2],Freebase Type A+extra peak*
same,Form after heating,[2],Freebase Type A+extra peak
"COCC[C@H]1CC2CN3CCc4c([nH]c5ccccc45)[C@](C(=O)OC)(C2)[C@H]13 [HCl salt Type K, 18-methoxycoronaridine]",Form change after treatment,"[3]; Exposure to ambient conditions (~50%RH), XRPD form",HCl salt Type F^#
"COCC[C@H]1CC2CN3CCc4c([nH]c5ccccc45)[C@](C(=O)OC)(C2)[C@H]13 [HCl salt Type N, 18-methoxycoronaridine]",Form after treatment,"[3]; RT storage, metastable forms",HCl salt Type A^#
same,"form conversion, summary statement","[3]; after air drying or RT storage, duration not stated",converted to HCl salt Type A
"COCC[C@H]1CC2CN3CCc4c([nH]c5ccccc45)[C@](C(=O)OC)(C2)[C@H]13 [besylate Type A, 18-methoxycoronaridine]",form change after heating (XRPD/VT-XRPD),[2]; heating to 100° C.,a new form was observed and assigned as besylate Type C
COCCC1CC2CN3CCc4c([nH]c5ccccc45)C(C(=O)OC)(C2)C13.O=S(=O)(O)c1ccccc1 (stereo not drawn) [besylate Type B (824511-44-C2)],Approximate solubility,"[1]; 50° C., solvent 2-MeTHF, *: little solids in the vial",S<1.9* mg/mL
same,Approximate solubility,"[1]; 50° C., solvent Toluene",S<1.9 mg/mL
same,Approximate solubility,"[1]; 50° C., solvent n-Heptane",S<2.0 mg/mL
same,Approximate solubility,"[1]; RT, solvent 2-MeTHF",S<1.9 mg/mL
same,Approximate solubility,"[1]; RT, solvent ACN",S>40.0 mg/mL
same,Approximate solubility,"[1]; RT, solvent ACN/H2O (1:2, aw 0.9), *: little solids in the vial",S<1.9* mg/mL
same,Approximate solubility,"[1]; RT, solvent CHCl3",S>40.0 mg/mL
same,Approximate solubility,"[1]; RT, solvent DCM",S>40.0 mg/mL
same,Approximate solubility,"[1]; RT, solvent EtOAc",S<2.0 mg/mL
same,Approximate solubility,"[1]; RT, solvent H2O",S<2.0 mg/mL
same,Approximate solubility,"[1]; RT, solvent IPA/H2O (847:153, aw 0.8)",S>40.0 mg/mL
same,Approximate solubility,"[1]; RT, solvent MeOH",S>44.0 mg/mL
same,Approximate solubility,"[1]; RT, solvent THF/H2O (87:13, aW 0.8)",S>42.0 mg/mL
same,Approximate solubility,"[1]; RT, solvent THF/H2O (981:19, aw 0.2)",S>40.0 mg/mL
same,Approximate solubility,"[1]; RT, solvent n-Heptane",S<2.0 mg/mL
"COCC[C@H]1CC2CN3CCc4c([nH]c5ccccc45)[C@](C(=O)OC)(C2)[C@H]13 [besylate Type B, 18-methoxycoronaridine]",form change after N2 drying (VT-XRPD),[2],no obvious form change
same,form change after heating (XRPD/VT-XRPD),[2]; heating to 100° C.,no obvious form change
"COCC[C@H]1CC2CN3CCc4c([nH]c5ccccc45)[C@](C(=O)OC)(C2)[C@H]13 [mesylate Type A, 18-methoxycoronaridine]",Solubility (mg/mL),[1]; approximate solubility in Acetone at RT,S<2.3 mg/mL
same,Solubility (mg/mL),[1]; [4],S>42.0* mg/mL
same,Solubility (mg/mL),[1]; [5],S<2.2 mg/mL
same,Solubility (mg/mL),[1]; [6],S>42.0* mg/mL
same,Solubility (mg/mL),[1]; [7],S>40.0 mg/mL
same,Solubility (mg/mL),[1]; [8],S<2.0 mg/mL
same,Solubility (mg/mL),[1]; [9],S<2.0 mg/mL
same,form change after N2 drying (VT-XRPD),[2],no form change
same,form change after heating (XRPD/VT-XRPD),[2]; heating to 100° C.,no obvious form change
"COCC[C@H]1CC2CN3CCc4c([nH]c5ccccc45)[C@](C(=O)OC)(C2)[C@H]13 [oxalate Type B, 18-methoxycoronaridine]",Solubility (mg/mL),[1]; [5],S<1.8 mg/mL
same,Solubility (mg/mL),[1]; [6],S>38.0 mg/mL
same,Solubility (mg/mL),[1]; [7],S>44.0 mg/mL
same,Solubility (mg/mL),[1]; [9],S<2.1 mg/mL
"COCC[C@H]1CC2CN3CCc4c([nH]c5ccccc45)[C@](C(=O)OC)(C2)[C@H]13 [sulfate Type A, 18-methoxycoronaridine]",Solubility (mg/mL),"[1]; CHCl3, RT, approximate",S<1.9 mg/mL
same,Solubility (mg/mL),"[1]; DCM, RT, approximate",S<2.1 mg/mL
same,Solubility (mg/mL),"[1]; EtOAc, RT, approximate",S<2.0 mg/mL
same,Solubility (mg/mL),"[1]; MeOH, RT, approximate",S>44.0 mg/mL
same,Solubility (mg/mL),"[1]; THF, RT, approximate",S<1.9 mg/mL
same,Solubility (mg/mL),"[1]; Toluene, RT, approximate",S<2.2 mg/mL
same,Solubility (mg/mL),"[1]; n-Heptane, RT, approximate",S<1.8 mg/mL
same,form change after N2 drying (VT-XRPD),[2],no obvious form change
same,form change after heating (XRPD/VT-XRPD),[2]; heating to 120° C.,no obvious form change
"COCC[C@H]1CC2CN3CCc4c([nH]c5ccccc45)[C@](C(=O)OC)(C2)[C@H]13 [sulfate Type D, 18-methoxycoronaridine]",form change after N2 drying (VT-XRPD),[2],a new form was observed and assigned as sulfate Type F
"COCC[C@H]1CC2CN3CCc4c([nH]c5ccccc45)[C@](C(=O)OC)(C2)[C@H]13 [sulfate Type E, 18-methoxycoronaridine]",form change after heating (XRPD/VT-XRPD),[2]; heating to 100° C.,no form change
"COCC[C@H]1CC2CN3CCc4c([nH]c5ccccc45)[C@](C(=O)OC)(C2)[C@H]13 [tosylate Type B, 18-methoxycoronaridine]",Approximate solubility,"[1]; 50° C., 1,4-Dioxane/n-heptane (1:2) v:v",S<1.9 mg/mL
same,Approximate solubility,"[1]; 50° C., IPAc",S<2.2 mg/mL
same,Approximate solubility,"[1]; 50° C., MTBE",S<2.1 mg/mL
same,Approximate solubility,"[1]; 50° C., Toluene",S<1.9 mg/mL
same,Approximate solubility,"[1]; 50° C., n-Heptane",S<2.0 mg/mL
same,Approximate solubility,"[1]; RT, 2-MeTHF",S<2.1 mg/mL
same,Approximate solubility,"[1]; RT, ACN/toluene (4:1) v:v",S>42.0 mg/mL
same,Approximate solubility,"[1]; RT, Acetone/n-heptane (4:1) v:v",S<2.0 mg/mL
same,Approximate solubility,"[1]; RT, CHCl3",S>40.0 mg/mL
same,Approximate solubility,"[1]; RT, CHCl3/toluene (1:4) v:v",S<1.9 mg/mL
same,Approximate solubility,"[1]; RT, EtOAc, little solid in the vial",S<2.1^& mg/mL
same,Approximate solubility,"[1]; RT, EtOH",S>40.0 mg/mL
same,Approximate solubility,"[1]; RT, EtOH/n-hexane (3:1) v:v",S>42.0 mg/mL
same,Approximate solubility,"[1]; RT, H2O",S<2.0 mg/mL
same,Approximate solubility,"[1]; RT, MeOH",S>44.0 mg/mL
same,Approximate solubility,"[1]; RT, THF/H2O (87:13) v:v",S>42.0 mg/mL
same,Approximate solubility,"[1]; RT, n-Heptane",S<2.0 mg/mL
"COCC[C@H]1CC2CN3CCc4c([nH]c5ccccc45)[C@](C(=O)OC)(C2)[C@H]13 [tosylate Type E, 18-methoxycoronaridine]",form change after heating (XRPD),[2]; [10],no form change
same,form change after heating (XRPD),[2]; heating to 101° C. and cooling back to RT,a sample with weak crystallinity and similar to tosylate Type B was obtained
"COCC[C@H]1CC2CN3CCc4c([nH]c5ccccc45)[C@](C(=O)OC)(C2)[C@H]13 [tosylate Type F, 18-methoxycoronaridine]",form change after heating (XRPD),[2]; heating to 90° C.,form change to tosylate Type B
"COCC[C@H]1CC2CN3CCc4c([nH]c5ccccc45)[C@](C(=O)OC)(C2)[C@H]13 [tosylate Type G, 18-methoxycoronaridine]",form change after heating (XRPD),[2]; [10],no form change
same,form change after heating (XRPD),[2]; heating to 90° C.,crystallinity of the sample decreased significantly
same,form change after heating (XRPD/VT-XRPD),[2]; heating to 100° C.,amorphous was obtained
